In patent publication US8252308B2, “Feminine anti-itch gel” (C.B. Fleet Company Inc., priority 2005, dated 2012):
Where a name gives a salt, the structure may show the parent alone.

Assay: pH and solubility behaviour of the anesthetic in water
Assay type: physicochemical
Description: In a preferred aspect, the pH modifier and the quantity of the pH modifier are selected to provide a pH to the composition of from 4 to 7, from 4.5 to 6.5, or more preferably from 5 to 5.3 when pramoxine serves as an anesthetic. In one aspect, the preferred pH for the gel is a pH value where the anesthetic is substantially present in its neutral state. For example, the hydrochloride salt of pramoxine has an acidic pH in water of about 4. However, at about pH 5 the pramoxine salt deprotonates to a neutral form that may provide increased transfer of the anesthetic into the vulvar tissues. Thus, a sufficient quantity of a base may be added to the gel as a pH modifier to provide the anesthetic in a substantially neutral form. However, at an upper pH value, such as about 5.2 for pramoxine, the anesthetic may precipitate out of the water phase, thus reducing the clarity of the gel. Thus, in a more preferred aspect, the pH modifier is chosen to provide a pH to the gel at which the majority of the anesthetic is present in its neutral state while remaining substantially solubilized.

water solubility	pH at which the salt deprotonates to a neutral form	upper pH value at which the anesthetic may precipitate out of the water phase	pH in water (hydrochloride salt in water)	Structure (SMILES)
water insoluble				CCOC(=O)c1ccc(N)cc1 [benzocaine]
	~5	about 5.2	about 4	CCCCOc1ccc(OCCCN2CCOCC2)cc1 [hydrochloride salt of pramoxine, pramoxine hydrochloride]
